The source made the active and inactive calls. The calls are words filed in the database; no cut-off is given here.
How the values were obtained:
MIA PaCa-2 [1] = test: Antitumor activity against human MIAPaCa2 cells xenografted in athymic BALB/c nu/nu nude mouse assessed as effect on tumor incidence at 120 mg/kg dosed every 3 days measured on day 16 after tumor cell inoculation relative to control; format: functional, organism-based
MIA PaCa-2 [2] = test: Antitumor activity against human MIAPaCa2 cells xenografted in athymic BALB/c nu/nu nude mouse assessed as tumor incidence at 120 mg/kg dosed every 3 days and co-treated with 10 mg/kg OGF measured on day 10 after tumor cell inoculation (reference value: 80%); format: functional
UMSCC1 [3] = test: Antitumor activity against human UM-SCC-1 cells xenografted in nu/nu mouse assessed as latency time for measurable (62.5 mm3) tumors at 120 mg/kg dosed every 3 days (Rvb <=14 days); format: functional
MIA PaCa-2 [4] = test: Antitumor activity against human MIAPaCa2 cells xenografted in athymic BALB/c nu/nu nude mouse assessed spleen weight at 10 mg/kg dosed daily measured on day 45 after tumor cell inoculation (reference value: 761 +/- 61 mg); format: functional
UMSCC1 [5] = test: Induction of cell cycle arrest in human UM-SCC-1 cells assessed as reduction in accumulation at G2/M phase in presence of OGF after 6 hrs by flow cytometry; format: functional, cell-based
UMSCC1 [6] = test: Antitumor activity against human UM-SCC-1 cells xenografted in nu/nu mouse assessed as latency time for measurable (62.5 mm3) tumors at 120 mg/kg dosed every 3 days and co-treated with 10 mg/kg OGF (Rvb <=14 days); format: functional
UMSCC1 [7] = test: Growth inhibition of human UM-SCC-1 cells assessed as decrease in cell number at 0.01 uM in presence of 1 uM opioid antagonist naloxone incubated for 24 to 96 hrs by MTS assay relative to control; format: functional, cell-based
MIA PaCa-2 [8] = test: Antitumor activity against human MIAPaCa2 cells xenografted in athymic BALB/c nu/nu nude mouse assessed tumor volume at 10 mg/kg dosed daily measured on day 45 after tumor cell inoculation (reference value: 8935 +/- 1694 mm3); format: functional
MIA PaCa-2 [9] = test: Antitumor activity against human MIAPaCa2 cells xenografted in athymic BALB/c nu/nu nude mouse assessed as effect on tumor incidence at 120 mg/kg dosed every 3 days and co-treated with 10 mg/kg OGF measured on day 16 after tumor cell inoculation relative to control; format: functional, organism-based
MIA PaCa-2 [10] = test: Antitumor activity against human MIAPaCa2 cells xenografted in athymic BALB/c nu/nu nude mouse assessed as latency time for visible tumor at 10 mg/kg dosed daily measured on day 10 after tumor cell inoculation (reference value: 10.1 +/- 1.8 days); format: functional

Nc1ccn([C@@H]2O[C@H](CO)[C@@H](O)C2(F)F)c(=O)n1 [GEMCITABINE]
Activity (MIA PaCa-2 [1]): inactive | Activity (MIA PaCa-2 [2]): 0% | Time (UMSCC1 [3]): <=2 weeks | Activity (MIA PaCa-2 [4]): 606 mg | Activity (UMSCC1 [5]): Active | Time (UMSCC1 [6]): 20 days | growth inhibition (GI) (UMSCC1 [7]): Active | Activity (MIA PaCa-2 [8]): 4849 mm3 | Activity (MIA PaCa-2 [9]): inactive | Time (MIA PaCa-2 [10]): 10.7 days

Source: ChEMBL document CHEMBL4420060, “Combinatorial therapies for the treatment of neoplasias using the opioid growth factor receptor” (2013)
